Measured values published in patent publication US6346539B1, “Treatment of skin conditions” (BTG International Limited, priority 1998, dated 2002).
Read-outs that look alike come from different tables or passages of the source.

Tests used:
[1] = test system: mouse melan-a cells; assay: Melanocyte proliferant activity of piperine derivatives, SRB assay, 4 days, 10% FBS; format: cell-based; conditions: for Relative activity to piperine: (A-100) compound/(A-100) piperine; for activity at 1 µM / activity at 10 µM / activity at 50 µM / activity at 100 µM / activity at 25 µM: Mus musculus, Melan-a, 96 h; for Active at higher conc. (μM)? / More active than piperine at higher conc. (μM)? / Active at 10 μM?: overall summary; for Active at higher conc. (μM)?: concentrations at which active; for More active than piperine at higher conc. (μM)?: concentrations at which more active than piperine
Description: The plates were incubated at 37° C. in a 10% CO2, 90% air humidified atmosphere for the stated length of time. At the end of the incubation, an SRB assay was performed. Briefly, cells attached to the bottom of the plate were fixed by addition of cold trichloroacetic acid (TCA, 4° C., Aldrich, Dorset, UK) on the top of the growth medium (final TCA 20% w/v). The plate was placed at 4° C. for 1 hour before being gently washed five times with tap water. It was allowed to dry in air, or aided with a hair dryer to speed up the drying process, then 50 μl of 4% w/v SRB dissolved in 1% acetic acid in water was added to each well for 30 min. At the end of the staining period, unbound SRB was removed by washing 4 times with 1% acetic acid. The plate was air dried again, and 150 μl of 10 mM aqueous Tris base (Sigma-Aldrich Co. Ltd, Irvine, UK) was added into each well to solubilize the cell-bound dye.
Various piperine derivatives of formula (1) were synthesised and tested for melanocyte (mouse melan-a) proliferant activity in-vitro. Cells we re incubated with the test compound for 4 days, as previously for the mouse cells but with 10% FBS, after which the sulphorhodamine-B (SRB) assay was performed to determnine cell number SRB uptake was measured as optical density at 550 nm. The control assay was carried out on cells incubated without test compound. There were 2 or 3 series of experiments, each of which consisted of six replcate experiments.
Percentage cell growth was obtained with a given compound calculated as (optical density in the presence of the compound/control optical density)×100.
Melan-a cell proliferant activity for tested compounds was compared with that obtained with piperine. […] All figures are given with Standard Error of the Mean.

[2] = test system: melan-a cells; assay: Dendricity of melan-a cells by observation under microscope; format: cell-based, mouse; parameters: key: +++: highly dendritic; ++: moderately dendritic; +: weakly dendritic; −: no effect
Excerpt: Effect on dendricity of melan-a cells by the test compounds was by observation under microscope. Dendricity is relevant to vitiligo since normal skin melanocytes have dendrites, but in vitiligo the melanocytes seem to lose these before they disappear from the patches.

[3] = read-out: growth of melan-a cells as % of control, dose experiment
[4] = 10 μM, read-out: growth of melan-a cells as % of control, dose experiment
[5] = single concentration (10 μM), melan-a, ± SEM, read-out: Percentage cell growth (Repeated experiments)
[6] = single concentration (10 μM), melan-a

CCNC(=O)/C=C/C=C/c1ccc2c(c1)OCO2 [RV-A08, 5-E,E-piperinoylethylamine]
Relative activity to piperine ([1]; 10 μM): 0.73
activity at 1 µM [1, 3]: 139 ± 27%
activity at 10 µM [1, 4]: 200 ± 14%
activity at 50 µM [1, 3]: 81 ± 12%
activity at 100 µM [1, 3]: 62 ± 13%
activity at 10 µM [1, 5]: 200 ± 14%
Active at higher conc. (μM)? [1]: No
More active than piperine at higher conc. (μM)? [1]: No
Active at 10 μM? ([1]; melan-a): Yes
Stimulant activity [1, 6]: Positive
Dentricity, dose experiment ([2]; 1 μM): ++
Dentricity, dose experiment ([2]; 10 μM): +++
Dentricity, dose experiment ([2]; 50 μM): +
Dentricity, dose experiment ([2]; 100 μM): +
Dendricity ([2]; Table 7, 10 μM): +++

CCOC(=O)/C=C/C=C/c1ccc2c(c1)OCO2 [RV-AB2, 5-E,E-piperinic Acid Ethyl Ester]
activity at 10 µM [1, 5]: 29 ± 9%
Active at 10 μM? ([1]; melan-a): No^c
Stimulant activity [1, 6]: Positive
Dendricity ([2]; Table 9, 10 μM): Toxic

O=C(/C=C/C=C/c1ccc2c(c1)OCO2)N1CCCC1 [RV-A01, 5-E,E-piperinoylpyrrolidine]
"cross-over" effect relative to piperine ([1]; 10 μM versus 50 μM): less active than piperine at 10 μM but more active at 50 μM
activity at 1 µM [1, 3]: 109 ± 7%
activity at 10 µM [1, 4]: 122 ± 7%
activity at 25 µM [1, 3]: 142 ± 21%
activity at 50 µM [1, 3]: 186 ± 14%
activity at 10 µM [1, 5]: 183 ± 34%
Active at 10 μM? ([1]; melan-a): Yes
Stimulant activity [1, 6]: Positive
Dendricity ([2]; Table 7, 10 μM): +++

CNC(=O)/C=C/C=C/c1ccc2c(c1)OCO2 [RV-A07, 5-E,E-piperinoylmethylamine]
Relative activity to piperine ([1]; 10 μM): 0.6
activity at 1 µM [1, 3]: 140 ± 12%
activity at 10 µM [1, 4]: 170 ± 24%
activity at 50 µM [1, 3]: 71 ± 5%
activity at 100 µM [1, 3]: 46 ± 2%
activity at 10 µM [1, 5]: 170 ± 24%
Active at higher conc. (μM)? [1]: No
More active than piperine at higher conc. (μM)? [1]: No
Active at 10 μM? ([1]; melan-a): Yes
Stimulant activity [1, 6]: Positive
Dentricity, dose experiment ([2]; 1 μM): ++
Dentricity, dose experiment ([2]; 10 μM): ++
Dentricity, dose experiment ([2]; 50 μM): +
Dentricity, dose experiment ([2]; 100 μM): +
Dendricity ([2]; Table 7, 10 μM): ++

CCCCNC(=O)/C=C/C=C/c1ccc2c(c1)OCO2 [RV-A11, 5-E,E-piperinoylbutylamine]
Relative activity to piperine ([1]; 10 μM): 0.66
activity at 1 µM [1, 3]: 189 ± 6%
activity at 10 µM [1, 4]: 264 ± 21%
activity at 50 µM [1, 3]: 158 ± 20%
activity at 100 µM [1, 3]: 84 ± 6%
activity at 10 µM [1, 5]: 264 ± 21%
Active at 10 μM? ([1]; melan-a): Yes
Stimulant activity [1, 6]: Positive
Dentricity, dose experiment ([2]; 1 μM): +++
Dentricity, dose experiment ([2]; 10 μM): +++
Dentricity, dose experiment ([2]; 50 μM): ++
Dentricity, dose experiment ([2]; 100 μM): +
Dendricity ([2]; Table 7, 10 μM): +++

CCCOC(=O)/C=C/C=C/c1ccc2c(c1)OCO2 [RV-AB5, 5-E,E-piperinic Acid Propyl Ester]
Relative activity to piperine ([1]; 10 μM): 0.95
activity at 1 µM [1, 3]: 120 ± 21%
activity at 10 µM [1, 4]: 151 ± 19%
activity at 50 µM [1, 3]: 163 ± 8%
activity at 100 µM [1, 3]: 123 ± 8%
activity at 10 µM [1, 5]: 166 ± 35%
Active at 10 μM? ([1]; melan-a): Yes
Stimulant activity [1, 6]: Positive
Dentricity, dose experiment ([2]; 1 μM): −
Dentricity, dose experiment ([2]; 10 μM): ++
Dentricity, dose experiment ([2]; 50 μM): ++
Dentricity, dose experiment ([2]; 100 μM): +
Dendricity ([2]; Table 9, 10 μM): ++

O=C(/C=C/c1ccc2c(c1)OCO2)N1CCCCC1 [RV-B01, 1-(3-trans-benzo-1,3-dioxol-5-ylacryloyl)piperidine]
activity at 1 µM [1, 3]: 111 ± 6%
activity at 10 µM [1, 4]: 147 ± 7%
activity at 25 µM [1, 3]: 187 ± 18%
activity at 50 µM [1, 3]: 187 ± 8%
Active at 10 μM? ([1]; melan-a): Yes
Stimulant activity [1, 6]: Positive
Dendricity ([2]; Table 8, 10 μM): ++

O=C(/C=C/C=C/c1ccc2c(c1)OCO2)NC1CCCCC1 [RV-A10, 5-E,E-piperinoyl cyclohexylamine]
Relative activity to piperine ([1]; 10 μM): 1.02
activity at 1 µM [1, 3]: 301 ± 20%
activity at 10 µM [1, 4]: 308 ± 29%
activity at 50 µM [1, 3]: 155 ± 22%
activity at 100 µM [1, 3]: 100 ± 13%
activity at 10 µM [1, 5]: 308 ± 29%
Active at 10 μM? ([1]; melan-a): Yes
Stimulant activity [1, 6]: Positive
Dentricity, dose experiment ([2]; 1 μM): +++
Dentricity, dose experiment ([2]; 10 μM): +++
Dentricity, dose experiment ([2]; 50 μM): +
Dentricity, dose experiment ([2]; 100 μM): +
Dendricity ([2]; Table 7, 10 μM): +++

COC(=O)/C=C/C=C/c1ccc2c(c1)OCO2 [RV-AB1, 5-E,E-piperinic Acid Methyl Ester]
activity at 1 µM [1, 3]: 125 ± 13%
activity at 10 µM [1, 4]: 147 ± 16%
activity at 50 µM [1, 3]: 187 ± 12%
activity at 100 µM [1, 3]: 171 ± 8%
Active at 10 μM? ([1]; melan-a): Yes
Stimulant activity [1, 6]: Positive
Dentricity, dose experiment ([2]; 1 μM): −
Dentricity, dose experiment ([2]; 10 μM): +
Dentricity, dose experiment ([2]; 50 μM): ++
Dentricity, dose experiment ([2]; 100 μM): ++
Dendricity ([2]; Table 9, 10 μM): ++

O=C(CCCCc1ccc2c(c1)OCO2)N1CCCCC1 [RV-C02, Tetrahydropiperine]
activity at 1 µM [1, 3]: 134 ± 15%
activity at 10 µM [1, 4]: 183 ± 33%
activity at 25 µM [1, 3]: 199 ± 31%
activity at 50 µM [1, 3]: 175 ± 12%
More active than piperine at higher conc. (μM)? [1]: No
Active at 10 μM? ([1]; melan-a): Yes
Stimulant activity [1, 6]: Positive
Dendricity ([2]; Table 11, 10 μM): +++

CCCCCCNC(=O)/C=C/C=C/c1ccc2c(c1)OCO2 [RV-A05, 5-E,E-piperinoylhexylamine]
activity at 1 µM [1, 3]: 155 ± 9%
activity at 10 µM [1, 4]: 188 ± 13%
activity at 25 µM [1, 3]: 178 ± 18%
activity at 50 µM [1, 3]: 178 ± 8%
More active than piperine at higher conc. (μM)? [1]: No
Active at 10 μM? ([1]; melan-a): Yes
Stimulant activity [1, 6]: Positive
Dendricity ([2]; Table 7, 10 μM): +++

COC(=O)/C=C/c1ccc2c(c1)OCO2 [RV-BB1, 3-trans-benzo-1,3-dioxol-5-ylacrylic acid methyl ester]
Active at 10 μM? ([1]; melan-a): No^b
Stimulant activity [1, 6]: Non- significant
